Test results: patent publication US20170050957A1, “4-AMINO-6-(HETEROCYCLIC)PICOLINATES AND 6-AMINO-2-(HETEROCYCLIC)PYRIMIDINE-4-CARBOXYLATES AND THEIR USE AS HERBICIDES” (Dow AgroSciences LLC, priority 2013, published 2017)
Where two headings read alike, the source gives them in different places.

How the values were obtained:
[1] = tested on: Key Broadleaf Weed and Crop Species; experiment: Post-emergent Test II herbicidal activity (Table 15); type: in vivo; conditions: post-emergence, 336 h, 14 d; for pest or weed control at 35 g/ha: 35 g ai/ha; for pest or weed control at 70 g/ha: 70 g ai/ha; for pest or weed control at 140 g/ha: 140 g ai/ha
Method in brief: (§1)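 Herbicidal effect scored as percent visual injury, 14 d after post-emergent application. Spray solutions contained acetone, DMSO, isopropyl alcohol, crop oil concentrate and surfactant, applied at 187 L/ha to young plants (1-2 true leaves).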

[2] = tested on: Key Grass and Sedge Weeds as well as Grass Crops; experiment: Post-emergent Test II herbicidal activity (Table 16); type: in vivo; conditions: post-emergence, 336 h, 14 days after application; for pest or weed control at 35 g/ha: 35 g ai/ha; for pest or weed control at 70 g/ha: 70 g ai/ha; for pest or weed control at 140 g/ha: 140 g ai/ha
Method in brief: as §1

[3] = Abutilon theophrasti, velvetleaf (Abutilon theophrasti), read-out: Visual Growth Reduction (%) 14 Days After Application, ABUTH
[4] = Amaranthus retroflexus, redroot pigweed (Amaranthus retroflexus), read-out: Visual Growth Reduction (%) 14 Days After Application, AMARE
[5] = Brassica napus, oilseed rape, canola (Brassica napus), read-out: Visual Growth Reduction (%) 14 Days After Application, BRSNN
[6] = Chenopodium album, lambsquarters (Chenopodium album), read-out: Visual Growth Reduction (%) 14 Days After Application, CHEAL
[7] = Euphorbia heterophylla, wild poinsettia (Euphorbia heterophylla), read-out: Visual Growth Reduction (%) 14 Days After Application, EPHHL
[8] = Helianthus annuus, sunflower (Helianthus annuus), read-out: Visual Growth Reduction (%) 14 Days After Application, HELAN
[9] = Cyperus esculentus, yellow nutsedge (Cyperus esculentus), read-out: Visual Growth Reduction (%) 14 Days After Application CYPES
[10] = Echinochloa crus-galli, barnyardgrass (Echinochloa crus-galli), read-out: Visual Growth Reduction (%) 14 Days After Application ECHCG
[11] = Oryza sativa, rice (Oryza sativa), read-out: Visual Growth Reduction (%) 14 Days After Application ORYSA
[12] = Setaria faberi, giant foxtail (Setaria faberi), read-out: Visual Growth Reduction (%) 14 Days After Application SETFA
[13] = Triticum aestivum, wheat, spring (Triticum aestivum), read-out: Visual Growth Reduction (%) 14 Days After Application TRZAS
[14] = Zea mays, maize, corn (Zea mays), read-out: Visual Growth Reduction (%) 14 Days After Application ZEAMX

| SMILES | pest or weed control at 35 g/ha [1, 3] | pest or weed control at 70 g/ha [1, 3] | pest or weed control at 140 g/ha [1, 3] | pest or weed control at 35 g/ha [1, 4] | pest or weed control at 70 g/ha [1, 4] | pest or weed control at 140 g/ha [1, 4] | pest or weed control at 35 g/ha [1, 5] | pest or weed control at 70 g/ha [1, 5] | pest or weed control at 140 g/ha [1, 5] | pest or weed control at 35 g/ha [1, 6] | pest or weed control at 70 g/ha [1, 6] | pest or weed control at 140 g/ha [1, 6] | pest or weed control at 35 g/ha [1, 7] | pest or weed control at 70 g/ha [1, 7] | pest or weed control at 140 g/ha [1, 7] | pest or weed control at 35 g/ha [1, 8] | pest or weed control at 70 g/ha [1, 8] | pest or weed control at 140 g/ha [1, 8] | pest or weed control at 35 g/ha [2, 9] | pest or weed control at 70 g/ha [2, 9] | other results |
| --- | --- | --- | --- | --- | --- | --- | --- | --- | --- | --- | --- | --- | --- | --- | --- | --- | --- | --- | --- | --- | --- |
| COC(=O)c1nc(-c2cc3sccc3cc2F)cc(N)c1Cl [Compound 3.17] | 0 to 29% | 45 to 59% | 60 to 74% | 75 to 84% | 95 to 100% | 95 to 100% | 0 to 29% | 0 to 29% | 60 to 74% | 85 to 94% | 95 to 100% | 95 to 100% | 45 to 59% | 60 to 74% | 75 to 84% | 0 to 29% | 0 to 29% | 30 to 44% | 0 to 29% | 0 to 29% | pest or weed control at 140 g/ha [2, 9]: 0 to 29%; pest or weed control at 35 g/ha [2, 10]: 45 to 59%; pest or weed control at 70 g/ha [2, 10]: 60 to 74%; pest or weed control at 140 g/ha [2, 10]: 95 to 100%; pest or weed control at 35 g/ha [2, 11]: 0 to 29%; pest or weed control at 70 g/ha [2, 11]: 0 to 29%; pest or weed control at 140 g/ha [2, 11]: 0 to 29%; pest or weed control at 35 g/ha [2, 12]: 0 to 29%; pest or weed control at 70 g/ha [2, 12]: 0 to 29%; pest or weed control at 140 g/ha [2, 12]: 30 to 44%; pest or weed control at 35 g/ha [2, 13]: 0 to 29%; pest or weed control at 70 g/ha [2, 13]: 0 to 29%; pest or weed control at 140 g/ha [2, 13]: 0 to 29%; pest or weed control at 35 g/ha [2, 14]: 30 to 44%; pest or weed control at 70 g/ha [2, 14]: 60 to 74%; pest or weed control at 140 g/ha [2, 14]: 75 to 84%; melting point: 70 °C |
| COC(=O)c1nc(-c2ccc3ccsc3c2)c(C)c(N)c1Cl [Compound 3.18] | 60 to 74% | 75 to 84% | 75 to 84% | 60 to 74% | 75 to 84% | 95 to 100% | 0 to 29% | 0 to 29% | 0 to 29% | 30 to 44% | 60 to 74% | 60 to 74% | 45 to 59% | 0 to 29% | 30 to 44% | 95 to 100% | 95 to 100% | 95 to 100% | 0 to 29% | 0 to 29% | pest or weed control at 140 g/ha [2, 9]: 0 to 29%; pest or weed control at 35 g/ha [2, 10]: 0 to 29%; pest or weed control at 70 g/ha [2, 10]: 0 to 29%; pest or weed control at 140 g/ha [2, 10]: 0 to 29%; pest or weed control at 35 g/ha [2, 11]: 0 to 29%; pest or weed control at 70 g/ha [2, 11]: 0 to 29%; pest or weed control at 140 g/ha [2, 11]: 0 to 29%; pest or weed control at 35 g/ha [2, 12]: 0 to 29%; pest or weed control at 70 g/ha [2, 12]: 0 to 29%; pest or weed control at 140 g/ha [2, 12]: 0 to 29%; pest or weed control at 35 g/ha [2, 13]: 0 to 29%; pest or weed control at 70 g/ha [2, 13]: 0 to 29%; pest or weed control at 140 g/ha [2, 13]: 0 to 29%; pest or weed control at 35 g/ha [2, 14]: 0 to 29%; pest or weed control at 70 g/ha [2, 14]: 0 to 29%; pest or weed control at 140 g/ha [2, 14]: 0 to 29%; melting point: 143 to 146 °C |
